Read-outs that look alike come from different tables or passages of the source.
What was measured:
Trx-1/TrxR = biological target: T1, Trx-1/TrxR (Homo sapiens, UniProt P10599+Q16881); assay: Trx-1/TrxR-dependent insulin reducing assay; type: biochemical; details: for IC50: calculated from 5 concentrations (0.1 to 50 μM)
T1 construct: Thioredoxin reductase was purified from human placenta as previously described; made in house
T1 sequence (P10599 1-105): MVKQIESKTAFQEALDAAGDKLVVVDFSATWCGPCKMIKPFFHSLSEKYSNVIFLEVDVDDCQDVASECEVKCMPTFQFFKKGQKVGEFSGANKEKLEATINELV
T1 sequence (Q16881 1-499 isoform Q16881-5): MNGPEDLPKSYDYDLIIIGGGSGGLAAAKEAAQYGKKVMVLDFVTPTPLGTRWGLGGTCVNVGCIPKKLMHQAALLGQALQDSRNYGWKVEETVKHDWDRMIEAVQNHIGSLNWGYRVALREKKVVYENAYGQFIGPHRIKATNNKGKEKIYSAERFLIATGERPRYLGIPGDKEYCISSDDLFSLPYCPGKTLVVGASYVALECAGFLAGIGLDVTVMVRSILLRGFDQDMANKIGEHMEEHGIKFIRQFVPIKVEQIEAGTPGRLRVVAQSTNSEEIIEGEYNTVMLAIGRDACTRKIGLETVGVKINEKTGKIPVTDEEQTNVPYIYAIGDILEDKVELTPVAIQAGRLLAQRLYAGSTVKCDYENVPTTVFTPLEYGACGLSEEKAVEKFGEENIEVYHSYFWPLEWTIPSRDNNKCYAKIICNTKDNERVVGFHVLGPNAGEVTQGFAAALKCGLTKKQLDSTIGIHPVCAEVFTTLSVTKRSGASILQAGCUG
Experimental: Thioredoxin reductase was purified from human placenta as previously described (Oblong, J.E.; Gasdaska, P.Y.; Sherrill, K.; Powis,G. Biochemistry 1993, 32, 7271) and recombinant human Trx-1 was prepared as previously described (Gasdaska, P.Y.; Oblong, J.E.; Cotgreave, I.A.; Powis,G. Biochem.Biophys.Acta 1994 ,1218 ,292). TrxR and Trx-1/TrxR activities were measured spectrophotometrically using previously published microtiter plate colorimetric assays, based on the increase in absorbance at 405 nm which occurs as dithionitrobenzoic acid (DTNB) is reduced by the enzyme-mediated transfer of reducing equivalents from NADPH (Gasdaska et al., Biochem.Biophys.Acta 1994 ,1218,292). Trx-1/TrxR-dependent insulin reducing activity was measured in an incubation with a final volume of 60 μL containing 100 mM HEPES buffer, pH 7.2,5 mM EDTA (HE buffer),1 mM NADPH, […],0.8 μM Trx-1 and 2.5 mg/mL bovine insulin. Incubations were for 30 min at 37 ° C. in flat-bottom 96-well microtiter plates. The reaction was stopped by the addition of 100 μL of 6 M guanidine-HC1, 50 mM Tris, pH 8.0, and 10 mM DTNB, and the absorbance measured to 405 nm. TrxR activity was measured in a final incubation volume of 60 μL containing HE buffer, 10 mM DTNB, 1.0 μM TrxR and 1 mM NADPH. Compounds were diluted in HE buffer and added to the wells as 20 μL aliquots, and TrxR was then added,also as 20 μL aliquots in HE buffer. To start the reaction NADPH and DTNB were added as a 20 μL aliquot in HE buffer and the plate was moved to the plate reader which had been preheated to 37 ° C. The optical density at 405 nm was measured every 10 s and initial reaction rates were measured.

MDA-MB-231 cells = assay: Antiproliferative assay, MDA-MB-231 cells; type: cell-based, human; details: 72 hours; for IC50: read-out: MDA-MB-231 50% cell growth inhibition; for sensitivity of MDA-MB-231 cells, in words: FIG. 23 Panel B
From the text: MDA-MB-231 cells, which were also derived from an adenocarcinoma of the breast, are less differentiated than the MCF-7 cells and fail to express functional p53 or estrogen receptors. This class of tumor cells contains important targets for new therapies, because loss of estrogen receptor expression is associated with poor patient prognosis. (Osborne, C. K. Breast Cane. Res. Treatm. 1998, 51, 227).
The inventors extrapolated to determine the IC50 for compounds with little cytotoxicity at 30,μM, the highest concentration tested. […] The enhanced sensitivity of MCF-7 to these compounds may be due to the expression of p53 in these cells.
Two compounds, 24 referred to herein as SR-4 and 27 referred to herein as SR-7, were examined in greater detail as to their effects on biological activity. The proliferation of MCF-7, MDA-MB-231 and SV40 transformed mouse embryonic fibroblasts was measured by a previously described colorimetric assay (Wipf P, Jung J-K, Rodriguez S, Lazo JS Synthesis and biological evaluation of Deoxypreussomerin A and Palmarumycin CP 1 and related naphthoquinone spiroketals. Tetrahedron 57:283-296, 2001 and Vogt A, Rice RL, Settineri CE, Yokokawa F, Yokokawa S, Wipf P and Lazo JS (1998) Disruption of insulin-like growth factor-I signaling and down-regulation of Cdc2 by SC-ααδ9, a novel small molecule antisignaling agent identified in a targeted array library. J Pharmacol Exptl Therap 287:806-813.). Briefly, the inventors seeded 4,000-6,000 cells per well in microtiter plates. Cells were allowed to attach overnight and treated with vehicle or compounds for 72 h, after which the medium was replaced with serum free medium containing 0.1% 3-[4,5-dimethylthiazol-2-yl]-2,5-diphenyl tetrazolium bromide. Plates were incubated for 3 hours in the dark and total cell number was determined by spectrophotometrically at 540 nm as previously described (Vogt A, Rice RL, Settineri CE, Yokokawa F, Yokokawa S, Wipf P and Lazo JS (1998) Disruption of insulin-like growth factor-1 signaling and down-regulation of Cdc2 by SC-ααδ9, a novel small molecule antisignaling agent identified in a targeted array library. J Pharmacol Exptl Therap 287:806-813.). […] Cells were maintained in RPMI 1640 medium containing 10% fetal bovine serum and the paclitaxel-resistant cells also contained 17 nM paclitaxel and 10 μM verapamil. Cells were plated (2,000/well) in 96-well plates and allowed to attach and grow for 72 hours (paclitaxel and verapamil were removed from resistant cell medium two weeks prior to this plating). They were then treated with 0.5% DMSO vehicle control or 0.08-10 μM compound. The number of cells was determined spectrophotometrically at 490 nm minus absorbance at 630 nm after exposure to 3-(4,5-dimethylthiazol-2-yl)-5-(3-carboxymethoxyphenyl)-2-(4-sulfophenyl)-2H-tetrazolium and N-methyldibenzopyurazine methyl sulfate.
Because of the potential importance of the tumor suppressor gene p53 and the estrogen receptor in controlling the cellular response to cytotoxic agents, the inventors also examined the sensitivity of MDA-MB-231 cells, which lack functional p53 and estrogen receptors. […] As might be expected, these p53 and estrogen receptor deficient cells were generally less sensitive to both natural products and analogs when compared to MCF-7 cells.

SMILES | IC50 (Trx-1/TrxR) | IC50 (MDA-MB-231 cells; Homo sapiens, MDA-MB-231) | also measured
O=C1C=CC2(Oc3cccc4cccc(c34)O2)c2cccc(OC/C=C/c3ccccc3)c21 [SR-1, (E)-8-(3-phenyl-allyloxy)-1-oxo-1,4-dihydronaphthalene-4-spiro-2′-naphto[1″, 8″-de] [1′,3′] dioxin] | > 50 µM | 7.5 µM | 
C/C=C/COc1cccc2c1C(=O)C=CC21Oc2cccc3cccc(c23)O1 [SR-2, (E)-8-(but-2-enyloxy)-1-oxo-1,4-dihydronaphthalene-4-spiro-2′-naphto [1″,8″-de][1′,3′]dioxin] | > 50 µM | 2.9 µM | 
CCCCCCOc1cccc2c1C(=O)C=CC21Oc2cccc3cccc(c23)O1 [SR-3, 8-hexyloxy-1-oxo-1,4-dihydronaphthalene-4-spiro-2′-naphto [1″,8″-de] [1′,3′] dioxin] | > 50 µM | 13.6 µM | 
COc1cccc(COc2cccc3c2C(=O)C=CC32Oc3cccc4cccc(c34)O2)c1 [SR-5, 8-(3-methoxy-benzyloxy)-1-oxo-1,4-dihydronaphthalene-4-spiro-2′-naphto [1″,8″-de][1′,3′] dioxin] | > 50 µM | 2.7 µM | 
O=C1C=CC2(Oc3cccc4cccc(c34)O2)c2cccc(OCCc3ccccc3)c21 [SR-6, 8-(2-phenyl-ethoxy)-1-oxo-1,4-dihydronaphthalene-4-spiro-2′-naphto [1″,8″-de][1′,3′] dioxin] | > 50 µM | 4.6 µM | 
O=C1C=CC2(Oc3cccc4cccc(c34)O2)c2cccc(OCc3ccco3)c21 [SR-7, 8-(furan-2-ylmethoxy)-1-oxo-1,4-dihydronaphthalene-4-spiro-2′-naphto [1″,8″-de][1′,3′] dioxin] | > 50 µM | 2.5 µM | sensitivity of MDA-MB-231 cells, in words (MDA-MB-231 cells): equally sensitive
CC(C)=CCC/C(C)=C/COc1cccc2c1C(=O)C=CC21Oc2cccc3cccc(c23)O1 [SR-9, (E,E)-8-(3,7-diemthyl-octa-2,6-dienyloxy)-1-oxo-1,4-dihydronaphthalene-4-spiro-2′-naphtol [1″,8″-de][1′,3′] dioxin] | > 50 µM | 2 µM | 
O=C1C=CC2(Oc3cccc4cccc(c34)O2)c2cccc(OCc3ccoc3)c21 [SR-10, 8-(furan-3-ylmethoxy)-1-oxo-1,4-dihydronaphthalene-4-spiro-2′-naphto [1′,8′-de][1′,3′] dioxin] | 23.2 µM | 2 µM | 
O=C1C=CC2(Oc3cccc4cccc(c34)O2)c2cccc(OCc3ccccn3)c21 [SR-11, 8-(pyridin-2-ylmethoxy)-1-oxo-1,4-dihydronaphthalene-4-spiro-2′-naphto [1″,8″-de][1′,3′] dioxin] | 41.8 µM | 2.8 µM | 
O=C1C=CC2(Oc3cccc4cccc(c34)O2)c2cccc(OCc3cccnc3)c21 [SR-12, 8-(pyridin-3-ylmethoxy)-1-oxo-1,4-dihydronaphthalene-4-spiro-2′-naphto [1″,8″-de][1′,3′] dioxin] | > 50 µM | 1.4 µM | 
O=C1C=CC2(Oc3cccc4cccc(c34)O2)c2cccc(OCc3ccncc3)c21 [SR-13, 8-(pyridin-4-ylmethoxy)-1-oxo-1,4-dihydronaphthalene-4-spiro-2′-naphtol [1″,8″-de][1′,3′] dioxin] | > 50 µM | 7.3 µM | 
C=CCOc1cccc2c1C(=O)C=CC21Oc2cccc3cccc(c23)O1 [SR-14, 8-allyloxy-1-oxo-1,4-dihydronaphthalene-4-spiro-2′-naphto [1″,8″-de][1′,3′] dioxin] | 23.2 µM | 2.7 µM | 
COc1ccc(COc2cccc3c2C(=O)C=CC32Oc3cccc4cccc(c34)O2)cc1 [TH-39, 8-(4-methoxy-benzyloxy)-1-oxo-1,4-dihydronaphthalene4-spiro-2-naphto [1,8-de][1, 3]dioxin] | > 50 µM | 2.2 µM | 
O=C1C=CC2(OCCO2)c2cccc(O)c21 [TH-169] | 3.4 µM | 4.3 µM | Trx-1/TrxR inhibition, in words (Trx-1/TrxR): maintains significant activity; fold less active than palmarumycin CP1 on Trx-1/TrxR (Trx-1/TrxR): approximately 10 fold; selectivity for Trx-1 over TrxR (Trx-1/TrxR): approximately 2 fold
COc1cccc2c1C(=O)C=CC21OCCCO1 [TH-223] | 40.2 µM |  | Trx-1/TrxR inhibition, in words (Trx-1/TrxR): practically inactive; IC50 (MDA-MB-231 cells): 5 µM
O=C1C=CC2(Oc3cccc4cccc(c34)O2)c2cccc(O)c21 [palmarumycin CP1, 8-hydroxy-1-oxo-1,4-dihydronaphthalene-4-spiro-2′-naphtho[1″,8″-de] [1′,3′] dioxin, reference compound] | 0.35 µM | 2.4 µM | selectivity for Trx-1 over TrxR (Trx-1/TrxR): > 30 fold; sensitivity of MDA-MB-231 cells, in words (MDA-MB-231 cells): equally sensitive

Source: patent US6673937B2, “Syntheses and methods of use of new antimitotic agents” (The University of Pittsburgh, priority 2000, dated 2004)
